Measured values from US12077503B2, “Substituted cyclic amides and their use as herbicides” (FMC CORPORATION, priority 2015, dated 2024).

What was measured:
Type in all cases: in vivo
[1] = system: blackgrass (Alopecurus myosuroides); test: Test A postemergence; details: Alopecurus myosuroides, post-emergence, 240 h, 125 g ai/ha, postemergence, visual injury rating after approximately 10 d; read-out: Blackgrass plant response rating (0 to 100 scale, 0 no effect, 100 complete control)
In short: (§1)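 Seeds sprayed preemergence with a directed soil spray, or plants at 2 to 10 cm height and one- to two-leaf stage sprayed postemergence, with test chemicals in a non-phytotoxic solvent mixture containing surfactant, in loam soil–sand blend. Injury rated visually against untreated controls after about 10 d in greenhouse, 0 (no effect) to 100 (complete control).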

[2] = system: barnyardgrass (Echinochloa crus-galli); test: Test A postemergence; details: Echinochloa crus-galli, post-emergence, 240 h, 125 g ai/ha, postemergence, visual injury rating after approximately 10 d; read-out: Barnyardgrass plant response rating (0 to 100 scale, 0 no effect, 100 complete control)
In short: as §1

[3] = system: wheat (Triticum aestivum); test: Test A postemergence; details: Triticum aestivum, post-emergence, 240 h, 125 g ai/ha, postemergence, visual injury rating after approximately 10 d; read-out: Wheat plant response rating (0 to 100 scale, 0 no effect, 100 complete control)
In short: as §1

[4] = system: pigweed (Amaranthus retroflexus); test: Test A postemergence; details: Amaranthus retroflexus, post-emergence, 240 h, 125 g ai/ha, postemergence, visual injury rating after approximately 10 d; read-out: Pigweed plant response rating (0 to 100 scale, 0 no effect, 100 complete control)
In short: as §1

[5] = system: Galium (catchweed bedstraw, Galium aparine); test: Test A postemergence; details: Galium, post-emergence, 240 h, 125 g ai/ha, postemergence, visual injury rating after approximately 10 d; read-out: Galium plant response rating (0 to 100 scale, 0 no effect, 100 complete control)
In short: as §1

Kochia (Kochia scoparia) [6] = test: Test A postemergence; details: Bassia scoparia, post-emergence, 240 h, 125 g ai/ha, postemergence, visual injury rating after approximately 10 d; read-out: Kochia plant response rating (0 to 100 scale, 0 no effect, 100 complete control)
In short: as §1

[7] = system: ryegrass, Italian (Italian ryegrass, Lolium multiflorum); test: Test A postemergence; details: Lolium multiflorum, post-emergence, 240 h, 125 g ai/ha, postemergence, visual injury rating after approximately 10 d; read-out: Ryegrass, Italian plant response rating (0 to 100 scale, 0 no effect, 100 complete control)
In short: as §1

corn (Zea mays) = test: Test A postemergence; details: Zea mays, post-emergence, 240 h, 125 g ai/ha, postemergence, visual injury rating after approximately 10 d; read-out: Corn plant response rating (0 to 100 scale, 0 no effect, 100 complete control)
In short: as §1

[8] = system: ragweed (common ragweed, Ambrosia elatior); test: Test A postemergence; details: Ambrosia artemisiifolia, post-emergence, 240 h, 125 g ai/ha, postemergence, visual injury rating after approximately 10 d; read-out: Ragweed plant response rating (0 to 100 scale, 0 no effect, 100 complete control)
In short: as §1

[9] = system: giant foxtail (Setaria faberii); test: Test A postemergence; details: Setaria faberi, post-emergence, 240 h, 125 g ai/ha, postemergence, visual injury rating after approximately 10 d; read-out: Foxtail, Giant plant response rating (0 to 100 scale, 0 no effect, 100 complete control)
In short: as §1

[10] = system: barnyardgrass (Echinochloa crus-galli); test: Test A preemergence; details: Echinochloa crus-galli, pre-emergence, 240 h
In short: as §1

[11] = system: pigweed (Amaranthus retroflexus); test: Test A preemergence; details: Amaranthus retroflexus, pre-emergence, 240 h
Kochia (Kochia scoparia) [12] = test: Test A preemergence; details: Bassia scoparia, pre-emergence, 240 h
In short: as §1

[13] = system: ryegrass, Italian (Italian ryegrass, Lolium multiflorum); test: Test A preemergence; details: Lolium multiflorum, pre-emergence, 240 h
In short: as §1

[14] = system: ragweed (common ragweed, Ambrosia elatior); test: Test A preemergence; details: Ambrosia artemisiifolia, pre-emergence, 240 h
In short: as §1

[15] = system: giant foxtail (Setaria faberii); test: Test A preemergence; details: Setaria faberi, pre-emergence, 240 h
In short: as §1

CCOc1ccc([C@H]2CNC(=O)[C@@H]2C(=O)Nc2cccc(F)c2F)cc1 [Compound 907]
50%: pest or weed control at 125 g/ha [2]
90%: pest or weed control at 500 g/ha ([15]; 500 g ai/ha, Preemergence, visual injury vs untreated controls after approximately 10 d, read-out: Foxtail, Giant plant response rating (0 to 100 scale where 0 is no effect and 100 is complete control))
80%: pest or weed control at 500 g/ha ([10]; 500 g ai/ha, Preemergence, visual injury vs untreated controls after approximately 10 d, read-out: Barnyardgrass plant response rating (0 to 100 scale where 0 is no effect and 100 is complete control)) | pest or weed control at 125 g/ha ([15]; 125 g ai/ha, preemergence, 0 to 100 scale where 0 is no effect and 100 is complete control, read-out: Foxtail, Giant plant response rating)
70%: pest or weed control at 125 g/ha ([10]; 125 g ai/ha, preemergence, 0 to 100 scale where 0 is no effect and 100 is complete control, read-out: Barnyardgrass plant response rating)
0%: pest or weed control at 125 g/ha [1] | plant injury at 125 g/ha [3] | pest or weed control at 125 g/ha [4] | pest or weed control at 125 g/ha [5] | pest or weed control at 125 g/ha (Kochia (Kochia scoparia) [6]) | pest or weed control at 125 g/ha [7] | plant injury at 125 g/ha (corn (Zea mays)) | pest or weed control at 125 g/ha [8] | pest or weed control at 125 g/ha ([11]; 125 g ai/ha, preemergence, 0 to 100 scale where 0 is no effect and 100 is complete control, read-out: Pigweed plant response rating) | pest or weed control at 500 g/ha ([11]; 500 g ai/ha, Preemergence, visual injury vs untreated controls after approximately 10 d, read-out: Pigweed plant response rating (0 to 100 scale where 0 is no effect and 100 is complete control)) | pest or weed control at 125 g/ha (Kochia (Kochia scoparia) [12]; 125 g ai/ha, preemergence, 0 to 100 scale where 0 is no effect and 100 is complete control, read-out: Kochia plant response rating) | pest or weed control at 125 g/ha ([13]; 125 g ai/ha, preemergence, 0 to 100 scale where 0 is no effect and 100 is complete control, read-out: Ryegrass, Italian plant response rating) | pest or weed control at 500 g/ha ([13]; 500 g ai/ha, Preemergence, visual injury vs untreated controls after approximately 10 d, read-out: Ryegrass, Italian plant response rating (0 to 100 scale where 0 is no effect and 100 is complete control)) | pest or weed control at 125 g/ha ([14]; 125 g ai/ha, preemergence, 0 to 100 scale where 0 is no effect and 100 is complete control, read-out: Ragweed plant response rating) | pest or weed control at 500 g/ha ([14]; 500 g ai/ha, Preemergence, visual injury vs untreated controls after approximately 10 d, read-out: Ragweed plant response rating (0 to 100 scale where 0 is no effect and 100 is complete control))
60%: pest or weed control at 125 g/ha [9]
20%: pest or weed control at 500 g/ha (Kochia (Kochia scoparia) [12]; 500 g ai/ha, Preemergence, visual injury vs untreated controls after approximately 10 d, read-out: Kochia plant response rating (0 to 100 scale where 0 is no effect and 100 is complete control))
